This is an account of results in patent US12226410B2, “Methods for enhancing cellular clearance of pathological molecules via activation of the cellular protein ykt6” (NORTHWESTERN UNIVERSITY, priority 2019, dated 2025).

In data set [1] the test system is H4 a-syn cells. The data set can be described thus: Immunofluorescence of GCase and LAMP2A in FTI-treated H4 a-syn cells. It is filed as cell-based, human. The settings on record: 5 nM FTI. The method, then: FIGS. 5A, 5B, 5C, 5D, 5E, 5F, and 5G. Reducing farnesyl-ykt6 enhances SNARE assembly and improves the lysosomal targeting of GCase. 5A) Ykt6 membrane shift analysis of SH-SY5Y cells expressing GFP-ykt6 wt or CS (n=3). 5B) Co-IP of GFP-ykt6 and bet1 in A53T iPSn (n=3). 5C) Ykt6 membrane shift analysis in FTI-treated SH-SY5Y wt a-syn cells or A53T iPSn (5 nM farnesyltransferase inhibitors (FTI) LNK-754 (FTI-1) or LNK-3248 (FTI-2) for 5 days) (n=4). Sec22b was measured to assess specificity. 5D) SEC/western blot of FTI-1 treated SH-SY5Y cells. Quantification is shown below. […]
FIGS. 14A, 14B, 14C, 14D, 14E, 14F, and 14G. […] 14A) Farnesylation of ykt6 was measured in SH-SY5Y cells expressing GFP-ykt6. […] Biotin was detected with streptavidin-conjugated IRDye800, and normalized to total levels of GFP-ykt6. […] Ykt6 complex levels eluting at ca. 120A were quantified on the right (n=2). […] 14E) Raw quantification data of LAMP2A immunofluorescence intensity of individual cells from H4 cells treated with FTI, +/−ykt6 KD. […] For all quantifications, values are the mean+/−SEM, *p<0.05.
For GCase/LAMP2 colocalization, cultures were fixed in 4% PFA in PBS for 20 minutes, then permeabilized in 0.2% saponin in 0.2% glycine buffer as described previously (Mazzulli et al., 2016b). […] Cells were mounted in DAPI-Fluoromount G (Southern Biotech) and analyzed by confocal microscopy as above. […]

A short description of data set [2]: Pharmacokinetic studies of the FTI. The settings on record: single oral dose; data not shown. The class given is in vivo, mice. From the text: Farnesyltransferase inhibition activates ykt6 in vivo and reduces pathological aggregation in mice. We next sought to determine if FTIs could activate ykt6 in the brains of mice by first testing their effect in wild-type animals.

Data set [3] has as its system GCase. Put plainly: FTI treatment of wild-type mice: GCase maturation and activity in cortex. The settings on record: daily i.p. 0.9 mg/kg, 14 days. The class given is in vivo. The method, then:
FIGS. 15A, 15B, 15C, 15D, 15E, and 15F. FTI treatment of wild-type mice enhances ykt6 SNARE complexes, lysosomal activity, and reduces a-syn. 15A) Wild-type mice (C57Bl/6) were i.p. injected daily with FTI for 14 days at 0.9 mg/kg and compared to vehicle injected mice. Extracts from the cortex were analyzed for cytosolic (cyt) and membrane (mem) distribution of ykt6 (veh, n=5; FTI, n=6). 15B) Representative gel filtration/western blot analysis of cortical extracts of veh or FTI injected wild-type mice. Inputs are shown on the left. NSE indicates equal column loading. 15C) Quantification of ykt6 and STX5 complexes (ca. 120A) from gel filtration analysis in C (n=4 mice). Fraction 1 corresponds to complexes at 120A, while fractions 7-9 correspond to ykt6 monomers at 22-14 A. 15D) The levels of post ER (endo H resistant) GCase were analyzed by western blot and post ER/ER ratios were quantified from the cortex of FTI treated mice (veh, n=5; FTI, n=6). 15E) GCase activity was assessed in cortical lysates and normalized to total protein (veh, n=4; FTI, n=6). 15F) a-Syn levels were quantified from cytosolic or membrane isolated fractions from the cortex of wild-type FTI treated mice (veh, n=4; FTI, n=6). For all quantifications, values are the mean+/−SEM, *p<0.05.
Analysis of post-ER GCase. […]

On to `C#Cc1cccc(-c2cc(=O)n(C)c3ccc([C@](O)(c4ccc(Cl)cc4)c4cncn4C)cc23)c1` [LNK-754], for which the “levels of LAMP2A and GCase by immunostaining” value in data set [1] was “elevated the levels of LAMP2A and GCase”. In data set [2], the blood-brain-barrier crossing result was “could rapidly cross the blood-brain-barrier” and the “time to clearance from plasma” value is not above 20 h. In data set [3] (cortex), the “mature, endo H resistant GCase in brain” value is “elevated levels”. Moreover, the “GCase enzyme activity in brain” value in data set [3] (cortical lysates) is “higher enzyme activity”.
